Values after ≈ are worked out from the molar mass of the structure shown.
How the values were obtained:
[1] = system: Plasmodium falciparum; assay: Antimalarial activity against chloroquine-sensitive Plasmodium falciparum 3D7; assay type: functional, organism-based
[2] = system: MCF7; assay: Antitumor activity in human MCF7 cells xenografted in mouse model assessed as tumor volume measured after 12 days relative to control; assay type: functional; conditions: time 12 day
[3] = system: MCF7; assay: Cytotoxicity against human MCF7 cells; assay type: functional, cell-based
[4] = system: HepG2; assay: Cytotoxicity against human HepG2 cells; assay type: functional, cell-based
[5] = system: Rattus norvegicus; assay: Antiinflammatory activity in carrageenan induced rat paw edema model assessed inhibition of TNF-alpha level; assay type: functional, organism-based
[6] = species on record: Mus musculus; assay: Antidepressant activity in Swiss albino mouse assessed as decrease in immobility time by forced swimming test; assay type: functional
[7] = species on record: Mus musculus; assay: Antidepressant activity in Swiss albino mouse assessed as decrease in duration of immobility by tail suspension test relative to control; assay type: functional; design: scale not given: the % may be the effect or the level left
[8] = system: Mus musculus; assay: Antidepressant activity in Swiss albino mouse assessed as decrease in duration of immobility at 100 mg/kg, po by forced swimming test relative to control; assay type: functional; design: scale not given: the % may be the effect or the level left
[9] = species on record: Mus musculus; assay: Antidepressant activity in Swiss albino mouse assessed as decrease in immobility time by tail suspension test; assay type: functional
[10] = species on record: Mus musculus; assay: Antidepressant activity in mouse assessed as […] by tail suspension test; assay type: functional
[11] = species on record: Mus musculus; assay: Antianxiety activity in mouse assessed as increase in number of entries in different arms; assay type: functional
[12] = species on record: Mus musculus; assay: Antidepressant activity in mouse assessed as […] by forced swimming test; assay type: functional
[13] = system: Huh-7; assay: Cytotoxicity against human Huh-7 cells; assay type: functional, cell-based
[14] = system: Staphylococcus aureus; assay: Antibacterial activity against Staphylococcus aureus assessed as inhibition of microbial growth; assay type: functional
[15] = system: Candida albicans; assay: Antifungal activity against Candida albicans; assay type: functional
[16] = system: Aspergillus niger; assay: Antifungal activity against Aspergillus niger; assay type: functional
[17] = system: Streptococcus pyogenes; assay: Antibacterial activity against Streptococcus pyogenes assessed as inhibition of microbial growth; assay type: functional
[18] = system: Aspergillus clavatus; assay: Antifungal activity against Aspergillus clavatus; assay type: functional
[19] = system: RAW264.7; assay: Antiinflammatory activity in LPS-induced mouse RAW264.7 cells assessed as inhibition of LPS induced NO production; assay type: functional, cell-based
[20] = system: RAW264.7; assay: Cytotoxicity against mouse RAW264.7 cells relative to control; assay type: functional
[21] = system: A549; assay: Cytotoxicity against human A549 cells assessed as reduction in cell viability; assay type: functional, cell-based
[22] = system: ECa-109 cell line; assay: Anticancer activity against human Eca-109 cells by MTS assay; assay type: functional, cell-based
[23] = system: AGS; assay: Anticancer activity against human AGS cells by MTS assay; assay type: functional, cell-based
[24] = Anticancer activity against human HCC446 cells by MTS assay; assay type: functional, cell-based
[25] = system: Plasmodium berghei; assay: Antimalarial activity against Plasmodium berghei infected in mouse assessed as suppression percentage at 48.46 umol/kg administered daily relative to control; assay type: functional; conditions: dose 48.46 µmol/kg
[26] = system: Mus musculus; assay: Anticonvulsant activity in BALB/c mouse assessed as increase in survival rate at 60 mg/kg, ip by PTZ method relative to control; assay type: functional
[27] = system: HepG2; assay: Cytotoxicity against human HepG2 cells by SRB assay; assay type: functional
[28] = Growth inhibition of human Panel NCI-58 (58 carcinoma cell lines) cells by SRB method; assay type: functional
[29] = system: UO-31; assay: Cytotoxicity against human UO-31 cells by SRB method; assay type: functional; conditions: read-out: LC50 (the source's name)
[30] = system: UO-31; assay: Growth inhibition of human UO-31 cells by SRB method; assay type: functional
[31] = Cytotoxicity against human Panel NCI-58 (58 carcinoma cell lines) cells by SRB method; assay type: functional; conditions: read-out: LC50 (the source's name)
[32] = system: Mycolicibacterium smegmatis; assay: Antimycobacterial activity against Mycobacterium smegmatis; assay type: functional
[33] = system: Staphylococcus aureus; assay: microbe, parasite or virus in culture
[34] = system: Candida albicans; assay: microbe, parasite or virus in culture
[35] = system: Escherichia coli; assay: Antibacterial activity against Escherichia coli; assay type: functional
[36] = system: Staphylococcus aureus; assay: Antibacterial activity against Staphylococcus aureus; assay type: functional
[37] = system: Rhizopus arrhizus; assay: Antifungal activity against Rhizopus oryzae; assay type: functional

COc1cc(C2CC(c3cc4ccccc4oc3=O)=NN2C(=O)c2ccncc2)cc(OC)c1OC (configuration not stated)
IC50 [1]: 9.68 µg/mL (≈ 19.9 µM)

CC(=O)Oc1ccc2c(c1)CC[C@@H]1[C@@H]2CC[C@]2(C)C3=NN(c4ccccc4)C(c4cccs4)C3C[C@@H]12 (some centres not stated)
Activity [2]: 87%
IC50 [3]: 0.043 µM

CN(C)c1ccc(C2CC(c3c4ccccc4cc4ccccc34)=NN2c2nc(-c3ccc(F)cc3)c(C#N)c(=O)[nH]2)cc1 (configuration not stated)
IC50 [4]: 4.21 µg/mL (≈ 7.28 µM)

Cc1ccc(/C=C/C2=NN(c3ccccc3)C(c3ccc(C)s3)C2)s1 (configuration not stated)
IC50 [5]: 0.0017 µM

COc1cc(C2CC(c3ccc(-c4cc(F)cc(F)c4)nc3C)=NN2)cc(OC)c1OC (configuration not stated)
Time [6]: 66.67 s
Activity [7]: 64.56%
Activity [8]: 66.58%
Time [9]: 70.33 s

CN(C)CCCN1c2ccccc2CCc2ccccc21 [IMIPRAMINE]
Time [10]: 29.33 s
Activity [7]: 61.96%
Activity [8]: 62.12%
Activity [11]: -9.33
Time [12]: 29.33 s

COc1cc(C2CC(c3c4ccccc4cc4ccccc34)=NN2c2nc(-c3ccc(F)cc3)c(C#N)c(=O)[nH]2)cc(OC)c1OC (configuration not stated)
IC50 [13]: 4.78 µg/mL (≈ 7.64 µM)

O=C(c1ccncc1)N1N=C(c2ccc([N+](=O)[O-])cc2)CC1c1cc2ccccc2nc1Cl (configuration not stated)
MIC [14]: 12.5 µg/mL
MIC [15]: 12.5 µg/mL (≈ 27.3 µM)
MIC [16]: 12.5 µg/mL (≈ 27.3 µM)
MIC [17]: 12.5 µg/mL
MIC [18]: 12.5 µg/mL (≈ 27.3 µM)

C[C@]12CC[C@H]3[C@@H](CC=C4C[C@@H](O)CC[C@@]43C)[C@@H]1CC[C@@H]2C1=NN(C(N)=S)C(c2ccccc2Cl)C1 (some centres not stated)
IC50 [19]: 0.86 µM
Activity [20]: >90%

COc1cc(C2CC(c3ccc(Cl)cc3)=NN2C(N)=S)cc(Br)c1O (configuration not stated)
IC50 [21]: 44.1 µM

C[C@]12CCC3(CC1=CCC1C2CC[C@]2(C)C4=NN[C@H](c5ccccc5)[C@H]4CC12)OCCO3 (some centres not stated)
IC50 [22]: 17.5 µM
IC50 [23]: 27.4 µM
IC50 [24]: 25.3 µM

CCC(=O)N1N=C(c2ccccc2)CC1c1cn(-c2ccccc2)nc1-c1ccc(C)cc1 (configuration not stated)
Activity [25]: 45.52%

O=C(Nc1ccc(Cl)cc1)N1N=C(c2ccc(Br)s2)CC1c1c(Cl)cccc1Cl (configuration not stated)
survival at 60 mg/kg [26]: 95%

COc1ccc(C2CC(c3cc(OC)c(OC)c(OC)c3)=NN2C(C)=O)cc1OCc1cn(Cc2ccc(F)cc2)nn1 (configuration not stated)
GI50 [27]: 6.7 µM

O=C(/C=C/c1ccc(C(F)(F)F)cc1)c1ccc(Nc2nc(NCCO)nc(NCCO)n2)cc1
GI50 [28]: 0.569 µM
CC50 [29]: 19.5 µM
GI50 [30]: 1.5 µM
CC50 [31]: 5.15 µM

COc1cc(/C=C/C(=O)CC(=O)/C=C/c2ccc(O)c(OC)c2)ccc1O [CURCUMIN]
IC50 [5]: 0.0534 µM

COc1ccc(-c2nn(-c3ccc(Cl)cc3)cc2C2CC(c3ccc(-c4ccccc4)cc3)=NN2)cc1 (configuration not stated)
MIC [32]: 15.6 µg/mL (≈ 30.9 µM)
MIC [33]: 15.6 µg/mL (≈ 30.9 µM)
MIC [34]: 15.6 µg/mL (≈ 30.9 µM)

COc1cc(C2CC(c3cc4ccccc4oc3=O)=NN2c2ccccc2)cc(OC)c1OC (configuration not stated)
IC50 [1]: 11.6 µg/mL (≈ 25.5 µM)
MIC [35]: 12.5 µg/mL (≈ 27.4 µM)
MIC [36]: 10 µg/mL (≈ 21.9 µM)
MIC [37]: 12.5 µg/mL (≈ 27.4 µM)

O=C(Nc1ccc(Cl)cc1)N1N=C(c2ccc(Cl)s2)CC1c1c(Cl)cccc1Cl (configuration not stated)
survival at 60 mg/kg [26]: 100%

Reference: ChEMBL document CHEMBL5260848, “Recent advancements in the development of bioactive pyrazoline derivatives” (Eur J Med Chem, 2020)
